pEC50, pKi: −log10 of the molar value. Where two headings read alike, the source gives them in different places. Some results are limits rather than exact numbers.

One data set has as its system RS4;11 cells. The data set is described as follows: RS4;11 cell viability assay (CellTiter Glo). The data set is classed as cell-based. The following applies: acute lymphoblastic leukemia cell line RS4;11, 10% human serum, 48 hours. An excerpt: The acute lymphoblastic leukemia (ALL) cell line RS4;11 was used as the primary human cell line to assess the cellular activity of Bcl-2 selective agents in vitro and their efficacy in vivo. Previous studies have shown by BH3 profiling, a mitochondrial assay that classifies blocks in the intrinsic apoptotic pathway, that RS4;11 cells were highly dependant on BCL-2 for survival and sensitive to the Bcl-2 family member inhibitor ABT-737 (Blood, 2008, Vol. III, 2300-2309).
RS4;11 cells were cultured in RPMI-1640 supplemented with 2 mM L-glutamine, 10% FBS, 1 mM sodium pyruvate, 2 mM HEPES, 1% penicillin/streptomycin (Invitrogen), 4.5 g/L glucose and maintained at 37 C containing 5% CO2. To test for the cellular activity of compounds in vitro, cells were treated at 50,000 cells per well in 96-well microliter plates in the presence of 10% human serum for 48 hours in a humidified chamber with 5% CO2. Cell cytotoxicity EC50 values were assessed using CellTiter Glo (Promega) according to the manufacturers recommendations. The EC50 values were determined as a percentage of viable cells following treatment compared to the untreated control cells.

The target in the next data set is GST-Bcl-2 (Homo sapiens (Human), UniProt P10415). The data set is described as follows: Time Resolved-Fluorescence Resonance Energy Transfer (TR-FRET) Bcl-2 binding assay. The following applies: F-Bak peptide probe 100 nM, GST-Bcl-2 1 nM, Tb-anti-GST 1 nM; Wang's equation. As to the method:
Determination of the utility of compounds having Formula (I) as binders to and inhibitors of anti-apoptotic Bcl-2 proteins was performed using the Time Resolved-Fluorescence Resonance Energy Transfer (TR-FRET) Assay. Tb-anti-GST antibody was purchased from Invitrogen (Catalog No. PV4216). Representative compounds were serially diluted in dimethyl sulfoxide (DMSO) starting at 50 μM (2× starting concentration; 10% DMSO) and 10 μL were transferred into a 384-well plate. […] For each assay, the probe/antibody and protein/probe/antibody were included on each assay plate as negative and positive controls, respectively. Fluorescence was measured on the ENVISION plate reader (Perkin Elmer) using a 340/35 nm excitation filter and 520/525 (F-Bak peptide) and 495/510 nm (Tb-labeled anti-Histidine antibody) emission filters. Inhibition constants (Ki) are shown in TABLE 2 below and were determined using Wang's equation (Wang Z.-X. An Exact Mathematical Expression For Describing Competitive Binding Of Two Different Ligands To A Protein Molecule. FEBS Lett. 1995, 360:111-4).

Data set [1] in a line: Solubility determination in aqueous media. The following applies: for solubility: phosphate buffer, pH 7.4, aqueous buffer, thermodynamic from solid.
Experimental: Reagents used included 0.1 N HCl, J T Baker Lot G08515; and 50 mM Phosphate pH 7.4, μ=0.155 w/NaCl, NB93214-089, Equipment/Instruments used included balance: Mettler Toledo, UMX2, LC805269; Rainin Pipette; 1000 μL RF09683 μL, 200 μL, RF20783; water bath: Vankel, LC 954896, set at 25° C. and 25 RPM, Thermometer: TB085699); and water bath: Vankel, LC 127535, set at 37° C. and 25 RPM, Thermometer: TB096544).
Examples were tested in aqueous media at 25° C. or 37° C. Excess amount of the bulk drug was weighed out and mixed with an aliquot of target media in a clear glass vial. The vial was sealed with cap and wrapped with aluminum foil, then tumbled in a 25° C. or 37° C. water bath as appropriate. When equilibration was completed, she samples were removed from the water bath and the final pH's were measured. The suspensions were filtered through 4 mm, 0.2 μm Millex-LG syringe filters (hydrophilic PTFE membrane, Millipore, Lot N9JN70696). Each filter was used only for one sample and the first three droplets were discarded. The filtrate was assayed after appropriate dilution with the same solvent as used for stock solution. Three replicates were prepared. The concentration of the sample was calculated against the calibration curve for the compound.

GST-Bcl-2, sequence (P10415 whole entry): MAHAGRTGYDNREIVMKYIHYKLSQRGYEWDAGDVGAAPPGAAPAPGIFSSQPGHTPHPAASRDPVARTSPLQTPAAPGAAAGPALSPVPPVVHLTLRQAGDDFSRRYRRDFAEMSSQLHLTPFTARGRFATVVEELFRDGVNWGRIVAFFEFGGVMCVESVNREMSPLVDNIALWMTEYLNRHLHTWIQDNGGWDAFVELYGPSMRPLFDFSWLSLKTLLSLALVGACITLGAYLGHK

Take “3-[(4-{[4-(4-{[2-(4-chlorophenyl)-4,4-dimethylcyclohex-1-en-1-yl]methyl}piperazin-1-yl)-2-(1H-pyrrolo[2,3-b]pyridin-5-yloxy)benzoyl]sulfamoyl}-2-nitrophenyl)amino]-2,2-dimethylpropyl dihydrogen phosphate [Example 4]”: the “Aqueous Solubility (pH 7.4)” value is 169 ug/mL. In the data set with RS4;11 cells, this compound showed a pEC50 of less than 6.00. Also, the negative logarithm of the Ki (pKi) at GST-Bcl-2 was more than 11.00. Take `CO[C@H]1CC[C@H](CNc2ccc(S(=O)(=O)NC(=O)c3ccc(N4CCN(CC5=C(c6ccc(Cl)cc6)CC(C)(C)CC5)CC4)cc3Oc3cc4ccnc-4n(COP(=O)(O)O)c3)cc2[N+](=O)[O-])CC1` [Example 1, {5-[5-(4-{[2-(4-chlorophenyl)-4,4-dimethylcyclohex-1-en-1-yl]methyl}piperazin-1-yl)-2-{[(4-{[(trans-4-methoxycyclohexyl)methyl]amino}-3-nitrophenyl)sulfonyl]carbamoyl}phenoxy]-7H-pyrrolo[2,3-b]pyridin-7-yl}methyl dihydrogen phosphate]: the “Aqueous Solubility (pH 7.4)” value in data set [1] (50 mM phosphate pH 7.4, 25° C. or 37° C.) is listed as more than 1159 ug/mL. For the same compound, in the data set on RS4;11 cells, the pEC50 was 6.51. In addition, the negative-log Ki (pKi) at GST-Bcl-2 is more than 11.00. In data set [1], `CO[C@H]1CC[C@H](CNc2ccc(S(=O)(=O)NC(=O)c3ccc(N4CCN(CC5=C(c6ccc(Cl)cc6)CC(C)(C)CC5)CC4)cc3Oc3cnc4[nH]ccc4c3)cc2[N+](=O)[O-])CC1` [Example 1M, Trans-4-(4-{[2-(4-chlorophenyl)-4,4-dimethylcyclohex-1-en-1-yl]methyl}piperazin-1-yl)-N-[(4-{[(4-methoxycyclohexyl)methyl]amino}-3-nitrophenyl)sulfonyl]-2-(1H-pyrrolo[2,3-b]pyridin-5-yloxy)benzamide] had a solubility of less than 1 µg/mL. In data set [1], `CC1(C)CCC(CN2CCN(c3ccc(C(=O)NS(=O)(=O)c4ccc(NCC5CCOCC5)c([N+](=O)[O-])c4)c(Oc4cnc5[nH]ccc5c4)c3)CC2)=C(c2ccc(Cl)cc2)C1` [Example 2B, 4-(4-{[2-(4-chlorophenyl)-4,4-dimethylcyclohex-1-en-1-yl]methyl}piperazin-1-yl)-N-({3-nitro-4-[(tetrahydro-2H-pyran-4-ylmethyl)amino]phenyl}sulfonyl)-2-(1H-pyrrolo[2,3-b]pyridin-5-yloxy)benzamide] had a solubility of less than 4 µg/mL. In data set [1], `CC1(C)CCC(CN2CCN(c3ccc(C(=O)NS(=O)(=O)c4ccc(OCC5(F)CCOCC5)c([N+](=O)[O-])c4)c(Oc4cnc5[nH]ccc5c4)c3)CC2)=C(c2ccc(Cl)cc2)C1` [Example 3E, 4-(4-{[2-(4-chlorophenyl)-4,4-dimethylcyclohex-1-en-1-yl]methyl}piperazin-1-yl)-N-({4-[(4-fluorotetrahydro-2H-pyran-4-yl)methoxy]-3-nitrophenyl}sulfonyl)-2-(1H-pyrrolo[2,3-b]pyridin-5-yloxy)benzamide] displayed a solubility of less than 1 µg/mL.

Consider `CC(C)(CO)CNc1ccc(S(=O)(=O)NC(=O)c2ccc(N3CCN(CC4=C(c5ccc(Cl)cc5)CC(C)(C)CC4)CC3)cc2Oc2cnc3[nH]ccc3c2)cc1[N+](=O)[O-]` [Example 6, 4-(4-{[2-(4-chlorophenyl)-4,4-dimethylcyclohex-1-en-1-yl]methyl}piperazin-1-yl)-N-({4-[(3-hydroxy-2,2-dimethylpropyl)amino]-3-nitrophenyl}sulfonyl)-2-(1H-pyrrolo[2,3-b]pyridin-5-yloxy)benzamide], for which the solubility in data set [1] was less than 1 µg/mL. Turning to `CC1(C)CCC(CN2CCN(c3ccc(C(=O)NS(=O)(=O)c4ccc(OC[C@H]5CC[C@H](O)CC5)c([N+](=O)[O-])c4)c(Oc4cnc5[nH]ccc5c4)c3)CC2)=C(c2ccc(Cl)cc2)C1` [Example 7, Trans-4-(4-{[2-(4-chlorophenyl)-4,4-dimethylcyclohex-1-en-1-yl]methyl}piperazin-1-yl)-N-({4-[(4 hydroxycyclohexyl)methoxy]-3-nitrophenyl}sulfonyl)-2-(1H-pyrrolo[2,3-b]pyridin-5-yloxy)benzamide], the solubility in data set [1] was less than 1 µg/mL. Take “(5-{5-(4-{[2-(4-chlorophenyl)-4,4-dimethylcyclohex-1-en-1-yl]methyl}piperazin-1-yl)-2-[({3-nitro-4-[(tetrahydro-2H-pyran-4-ylmethyl)amino]phenyl}sulfonyl)carbamoyl]phenoxy}-7H-pyrrolo[2,3-b]pyridin-7-yl)methyl dihydrogen phosphate [Example 2]”: the “Aqueous Solubility (pH 7.4)” value is more than 4820 ug/mL. Further, the negative logarithm of the EC50 (pEC50) with RS4;11 cells was 6.74. At GST-Bcl-2, this compound had a pKi of more than 11.00. As to “(5-{5-(4-{[2-(4-chlorophenyl)-4,4-dimethylcyclohex-1-en-1-yl]methyl}piperazin-1-yl)-2-[({4-[(4-fluorotetrahydro-2H-pyran-4-yl)methoxy]-3-nitrophenyl}sulfonyl)carbamoyl]phenoxy}-7H-pyrrolo[2,3-b]pyridin-7-yl)methyl dihydrogen phosphate [Example 3]”, the “Aqueous Solubility (pH 7.4)” value is more than 10850 ug/mL. The same compound gave a pEC50 in the data set on RS4;11 cells of 7.39. With “trans-4-[(4-{[4-(4-{[2-(4-chlorophenyl)-4,4-dimethylcyclohex-1-en-1-yl]methyl}piperazin-1-yl)-2-(1H-pyrrolo[2,3-b]pyridin-5-yloxy)benzoyl]sulfamoyl}-2-nitrophenoxy)methyl]cyclohexyl dihydrogen phosphate [Example 5]”, the “Aqueous Solubility (pH 7.4)” value is recorded as more than 6580 ug/mL. Moreover, in the data set with RS4;11 cells, the negative logarithm of the EC50 (pEC50) was 7.38.

The values above are taken from patent publication US9403822B2, “Apoptosis-inducing agents for the treatment of cancer and immune and autoimmune diseases” (AbbVie Inc., priority 2010, dated 2016).
